Our source for the LogP and chromatographic logP values is patent US10485236B2, “Triazole derivatives, intermediates thereof and their use as fungicides” (Bayer CropScience Aktiengesellschaft, priority 2015, dated 2019).

Marks after values point to notes of the source that are not given here.

The data set can be described thus: Measurement of LogP values by HPLC on reversed phase columns (EEC directive 79/831 Annex V.A8). The format is physicochemical. The following applies: for chromatographic logP: reversed phase HPLC column. Here is the method:
[table] If more than one Log P value is available within the same method, all the values are given and separated by “+”. Calibration was done with straight-chain alkan2-ones (with 3 to 16 carbon atoms) with known Log P values (measurement of Log P values using retention times with linear interpolation between successive alkanones). Lambda-max-values were determined using UV-spectra from 200 nm to 400 nm and the peak values of the chromatographic signals.

Where [1] appears, read: method [a]: LC-UV, acidic range, 0.1% formic acid in water and acetonitrile as eluent.

In the case of `OC(Cn1cncn1)(c1ccc(Oc2ccc(Br)cc2)nc1C(F)(F)F)C(F)(F)F` (stereo not drawn) [I.85], the LogP is 3.48^[a]. As to `OC(Cn1cncn1)(c1ccc(Oc2ccc(C(F)(F)F)cc2)nc1C(F)(F)F)C1CC1` (stereo not drawn) [I.87], the LogP was 3.57^[a]. For the molecule `OC(Cn1cncn1)c1cnc(Oc2ccc(C(F)(F)F)cc2)cc1Cl` (stereo not drawn) [I.88], the LogP was 2.64^[a]. `CC(O)(Cn1cncn1)c1ccc(Oc2ccc(Cl)cc2F)nc1C(F)(F)F` (stereo not drawn) [I.89]: the LogP is 3.15^[a]. As to `OC(Cn1cncn1)c1ccc(Oc2ccc(Cl)cc2F)nc1C(F)(F)F` (stereo not drawn) [I.90], the LogP was 2.88^[a].

As to `OC(Cn1cncn1)(c1ccc(Oc2ccc(C(F)F)cc2)nc1C(F)(F)F)C1CC1` (stereo not drawn) [I.93], the LogP was 3.13^[a]. Still for that read-out and setting: for `OC(Cn1cncn1)c1cnc(Oc2ccc(Cl)cc2)cc1C(F)F` (stereo not drawn) [I.94] the value was 2.13^[a]; for `CC(O)(Cn1cncn1)c1ccc(Oc2ccc(OC(F)(F)F)cc2)nc1C(F)(F)F` (stereo not drawn) [I.95], 2.98^[a]. The same measure, in the same setting: under `CC(O)(Cn1cncn1)c1ccc(Oc2ccc(Cl)cc2)nc1C(F)(F)F` (stereo not drawn) [I.96] stands 2.68^[a]; under `OC(Cn1cncn1)(c1ccc(Oc2ccc(S(F)(F)(F)(F)F)cc2)nc1C(F)(F)F)C1CC1` (stereo not drawn) [I.97], 3.80^[a]. Consider `CCCCC(O)(Cn1cncn1)c1ccc(Oc2ccc(Cl)cc2)nc1C(F)(F)F` (stereo not drawn) [I.98], for which the LogP was 3.87^[a]. For `CCCC(O)(Cn1cncn1)c1ccc(Oc2ccc(Cl)cc2)nc1C(F)(F)F` (stereo not drawn) [I.100], the LogP was 3.55^[a]. Consider `CCC(O)(Cn1cncn1)c1ccc(Oc2ccc(Cl)cc2)nc1C(F)(F)F` (stereo not drawn) [I.103], for which the LogP is 3.19^[a].

As to `FC(F)c1ccc(Oc2ccc(C3(C4CC4)CO3)c(C(F)(F)F)n2)cc1` (stereo not drawn) [IX.05], the LogP was 4.49^[a]. Same read-out and setting: under `CC1(c2ccc(Oc3ccc(Cl)cc3)nc2C(F)(F)F)CO1` (stereo not drawn) [IX.06] stands 4.44^[a].

A word on the chromatographic logP: it is lipophilicity estimated from chromatographic retention. Consider `FC(F)(F)c1nc(Oc2ccc(Cl)cc2)ccc1C1(C2CC2)CO1` (stereo not drawn) [IX.07, 6-(4-chlorophenoxy)-3-(2-cyclopropyloxiran-2-yl)-2-(trifluoromethyl)pyridine], for which the chromatographic logP under setting [1] is 4.8. Consider `FC(F)(F)c1nc(Oc2ccc(Br)cc2)ccc1C1(C2CC2)CO1` (stereo not drawn) [IX.08], for which the LogP was 5.11^[a]. On the same count and under the same terms, for `FC(F)(F)c1nc(Oc2ccc(S(F)(F)(F)(F)F)cc2)ccc1C1(C2CC2)CO1` (stereo not drawn) [IX.09] the value was 5.22^[a]; for `FC(F)(F)c1ccc(Oc2ccc(C3(C4CC4)CO3)c(C(F)(F)F)n2)cc1` (stereo not drawn) [IX.11], 5.00^[a]. Molecule `CC(=O)c1ccc(Oc2ccc(Cl)cc2)nc1C(F)(F)F` [V.01, 1-[6-(4-chlorophenoxy)-2-(trifluoromethyl)-3-pyridyl]ethanone] showed a chromatographic logP under setting [1] of 3.8. Still for that read-out and setting: for `CC(=O)c1cnc(Oc2ccc(Cl)cc2)cc1C(F)(F)F` [V.02, 1-[6-(4-chlorophenoxy)-4-(trifluoromethyl)-3-pyridyl]ethanone] the value was 3.89. Take `CC(=O)c1cnc(Oc2ccc(S(F)(F)(F)(F)F)cc2)cc1C(F)(F)F` [V.03]: the LogP was 4.32^[a].

Take `CC(=O)c1cnc(Oc2ccc(C(F)F)cc2)cc1C(F)(F)F` [V.04]: the LogP was 3.62^[a]. Regarding `CC(=O)c1ccc(Oc2ccc(Cl)cc2)nc1C(F)F` [V.05], the LogP is 3.35^[a]. For the molecule `CC(=O)c1ccc(Oc2ccc(Cl)cc2)nc1OC(F)(F)F` [V.06], the LogP was 4.37^[a]. Same read-out and setting: for `CC(=O)c1cnc(Oc2ccc(Cl)cc2F)cc1C(F)(F)F` [V.07] the value was 4.09^[a]. On to `CC(=O)c1ccc(Oc2ccc(Cl)c(Cl)c2)nc1Cl` [V.11], for which the LogP was 4.10^[a].

Take `CC(=O)c1ccc(Oc2ccc(F)cc2)nc1Cl` [V.12]: the LogP was 3.11^[a]. The same measure, in the same setting: for `CC(=O)c1ccc(Oc2ccc(Cl)cc2)nn1` [V.13] the value was 2.73^[a].

In the case of `CC(=O)c1ccc(Oc2ccc(C(F)F)cc2)nc1Cl` [V.14], the LogP was 3.15^[a]. The same measure, in the same setting: under `CC(=O)c1cnc(Oc2ccc(OC(F)(F)F)cc2)cc1C(F)(F)F` [V.15] stands 4.20^[a]; under `CC(=O)c1ccc(Oc2ccc(S(F)(F)(F)(F)F)cc2)nc1C(F)(F)F` [V.16], 4.09^[a]. Same read-out and setting: under `CC(=O)c1ccc(Oc2ccc(C(F)(F)F)cc2)nc1C(F)(F)F` [V.17] stands 3.96^[a]. Still for that read-out and setting: for `CC(=O)c1cnc(Oc2ccc(C(F)(F)F)cc2)cc1Cl` [V.18] the value was 3.87^[a]; for `CC(=O)c1cnc(Oc2ccc(Cl)cc2)cc1C(C)=O` [V.19], 3.11^[a].

With `CC(=O)c1ccc(Oc2ccc(Br)cc2)nc1C(F)(F)F` [V.20], the LogP was 3.85^[a]. On to `CC(=O)c1cnc(Oc2ccc(Cl)cc2)cc1Cl` [V.22], for which the LogP was 3.51^[a].

As for `CC(=O)c1ncc(Oc2ccc(Cl)cc2)nc1Cl` [V.23], the LogP was 3.51^[a]. Still for that read-out and setting: under `CC(=O)c1ccc(Oc2ccc(Cl)cc2)nc1F` [V.24] stands 3.51^[a]; under `CC(=O)c1cnc(Oc2ccc(C(F)(F)F)cc2)cc1C(F)(F)F` [V.25], 4.04^[a]. As for `CC(=O)c1ccc(Oc2ccc(Cl)cc2)nc1Cl` [V.26], the LogP is 3.45^[a]. The same measure, in the same setting: under `CC(=O)c1cnc(Oc2ccc(Br)cc2)cc1C(F)(F)F` [V.27] stands 3.99^[a]; under `CC(=O)c1ccc(Oc2ccc(OC(F)(F)F)cc2)nc1Cl` [V.28], 3.89^[a]; under `COc1ccc(Oc2ccc(C(C)=O)c(Cl)n2)c(Cl)c1` [V.29], 3.44^[a].

For the molecule `CC(=O)c1ccc(Oc2ccc(S(F)(F)(F)(F)F)cc2)nc1Cl` [V.30], the LogP was 3.99^[a].

On to `CC(=O)c1ccc(Oc2c(F)cc(Cl)cc2F)nc1C(F)(F)F` [V.31], for which the LogP is 4.06^[a]. In the case of `CC(=O)c1ccc(Oc2ccc(C(F)F)cc2)nc1C(F)(F)F` [V.32], the LogP was 3.26^[a]. Same read-out and setting: under `CC(=O)c1ncc(Oc2ccc(Cl)cc2)nc1Oc1ccc(Cl)cc1` [V.33] stands 4.36^[a]. As for `CC(=O)c1ccc(Oc2ccc(Br)cc2)nc1C(F)F` [V.34], the LogP is 3.46^[a]. In the case of `CC(=O)c1ccc(Oc2ccc(OC(F)(F)F)cc2)nc1C(F)(F)F` [V.35], the LogP is 4.04^[a]. The same measure, in the same setting: for `CC(=O)c1cnc(Oc2ccc(Br)cc2)cc1C(F)F` [V.36] the value was 3.74^[a]; for `CC(=O)c1cnc(Oc2ccc(Cl)cc2)cc1C(F)F` [V.37], 3.57^[a]. Regarding `CC(=O)c1ccc(Oc2ccc(Cl)cc2F)nc1C(F)(F)F` [V.38], the LogP was 3.87^[a].

`O=C(c1ccc(Oc2ccc(C(F)(F)F)cc2)nc1C(F)(F)F)C1CC1` [V.39]: the LogP is 4.37^[a]. Take `O=C(c1ccc(Oc2ccc(Br)cc2)nc1C(F)(F)F)C1CC1` [V.40]: the LogP is 4.49^[a]. As for `O=C(c1ccc(Oc2ccc(Cl)cc2)nc1C(F)(F)F)C1CC1` [V.41, [6-(4-chlorophenoxy)-2-(trifluoromethyl)-3-pyridyl]-cyclopropyl-methanone], the chromatographic logP under setting [1] is 4.17.

`O=Cc1ccc(Oc2ccc(C(=O)C3CC3)c(C(F)(F)F)n2)cc1` [V.42]: the LogP is 3.21^[a].

Take `O=C(c1ccc(Oc2ccc(S(F)(F)(F)(F)F)cc2)nc1C(F)(F)F)C1CC1` [V.43]: the LogP was 4.67^[a]. `O=C(c1ccc(Oc2ccc(C(F)F)cc2)nc1C(F)(F)F)C1CC1` [V.44]: the LogP is 3.80^[a]. As to `CCC(=O)c1ccc(Oc2ccc(Cl)cc2)nc1C(F)(F)F` [V.45], the LogP was 4.20^[a]. Still for that read-out and setting: under `CCCC(=O)c1ccc(Oc2ccc(Cl)cc2)nc1C(F)(F)F` [V.46] stands 4.59^[a]. Take `CC(C)CC(=O)c1ccc(Oc2ccc(Cl)cc2)nc1C(F)(F)F` [V.47]: the LogP was 4.98^[a]. Still for that read-out and setting: for `CCCCC(=O)c1ccc(Oc2ccc(Cl)cc2)nc1C(F)(F)F` [V.48] the value was 5.03^[a].

For the molecule `O=C(CCl)c1ccc(Oc2ccc(Cl)cc2)nc1C(F)(F)F` [VI.01, 2-chloro-1-[6-(4-chlorophenoxy)-2-(trifluoromethyl)-3-pyridyl]ethanone], under “method [a], compounds of formula (VI), Table 3”, the chromatographic logP was determined as 4.01. For `O=C(CCl)c1ccc(Oc2ccccc2)nc1Cl` [VI.03], the LogP is 3.23^[a].

On to `O=C(CCl)c1ccc(Oc2ccc(Cl)cc2)nc1Cl` [VI.04], for which the LogP was 3.72^[a]. The same measure, in the same setting: under `O=C(CCl)c1cnc(Oc2ccccc2)cc1Cl` [VI.05] stands 3.28^[a]; under `O=C(CCl)c1cnc(Oc2ccc(Cl)cc2)cc1Cl` [VI.06], 3.77^[a]. Still for that read-out and setting: for `O=C(CBr)c1ccc(Oc2ccc(Cl)c(Cl)c2)nc1Cl` [VI.07] the value was 4.58^[a]. The same measure, in the same setting: for `O=C(CCl)c1ccc(Oc2ccc(OC(F)(F)F)cc2)nc1Cl` [VI.08] the value was 4.09^[a]. For `O=C(CCl)c1ccc(Oc2ccc(F)cc2)nc1Cl` [VI.09], the LogP is 3.39^[a]. For `O=C(CCl)c1ncc(Oc2ccc(Cl)cc2)nc1Cl` [VI.10], the LogP is 3.78^[a]. Still for that read-out and setting: under `O=C(CCl)c1ccc(Oc2ccc(Cl)cc2)nc1C(F)F` [VI.11] stands 3.62^[a]; under `O=C(CCl)c1ccc(Oc2ccc(Cl)cc2)nc1OC(F)(F)F` [VI.12], 4.51^[a]. On the same count and under the same terms, under `COc1ccc(Oc2ccc(C(=O)CCl)c(Cl)n2)c(Cl)c1` [VI.13] stands 3.71^[a]; under `O=C(CBr)c1cnc(Oc2ccc(Cl)cc2)cc1C(F)(F)F` [VI.14], 4.29^[a]. Take `O=C(CBr)c1cnc(Oc2ccc(Br)cc2)cc1C(F)(F)F` [VI.15]: the LogP is 4.34^[a]. Still for that read-out and setting: for `O=C(CCl)c1ccc(Oc2ccc(C(F)F)cc2)nc1Cl` [VI.16] the value was 3.42^[a]. Still for that read-out and setting: under `O=C(CBr)c1ccc(Oc2ccc(C(F)F)cc2)nc1Cl` [VI.17] stands 3.57^[a]; under `O=C(CBr)c1ccc(Oc2ccc(Br)cc2)nc1C(F)(F)F` [VI.18], 4.23^[a]. Take `O=C(CCl)c1ccc(Oc2ccc(Br)cc2)nc1C(F)(F)F` [VI.19]: the LogP was 4.11^[a].
